The values that follow are results of earlier work, collected in US5807857A, “Piperazine, piperidine and tetrahydropyridine derivative of indol-3-alkyl as 5-HT1D-α agonists” (Merck Sharp & Dohme Ltd., priority 1994, dated 1998).

The conditions of data set [1]: administration to humans at therapeutic doses.
Data set [2] deals with human 5-HT1Dα and 5-HT1Dβ receptor subtypes. The conditions noted are these: cf. WO-A-91/17174, Table 1.

In the case of `CNS(=O)(=O)Cc1ccc2[nH]cc(CCN(C)C)c2c1` [sumatriptan], the “adverse cardiovascular events in humans” value in data set [1] is reported as “certain adverse cardiovascular events”. The “discrimination between the human 5-HT1Dα and 5-HT1Dβ receptor subtypes” value in data set [2] is reported as “barely discriminates”.
